In patent publication US20120040976A1, “SMALL MOLECULE IMMUNOMODULATORS FOR ALZHEIMER'S DISEASE” (HUMAN BIOMOLECULAR RESEARCH INSTITUTE, priority 2008, published 2012):
In brackets after ≈: the same amount, converted by molar mass.

How the values were obtained:
[1] = Average solubility; format: physicochemical
[2] = Chemical stability (H2O, pH 7.4); format: physicochemical
[3] = Metabolic stability in human liver microsomes; format: in vitro ADME; settings: human, read-out: Half life, t1/2 HLM
[4] = Metabolic stability in human S9 fraction; format: in vitro ADME; settings: read-out: Half life, t1/2 S9
[5] = tested on: cortical neurons in hAPP-transfected rat brain slices; assay: Rat brain slice AD model (hAPP-induced neurodegeneration); format: cell-based; settings: rat brain slices transfected with EYFP and hAPP, three concentrations, 72 hrs (FIG. 8)
Text: A rodent brain slice model for AD has been developed where the expression of human APP by particle-mediated gene transfer (“biolistics”) leads to typical signs of neuronal dystrophy, and ultimately the degeneration and clearance of the cell body with a few days. Brain slice preparations offer a powerful experimental system because they preserve the three-dimensional tissue architecture and local environment of neurons and glia far better than dissociated cell culture. As such, drug lead candidates that show neuroprotective activity in brain-tissue based disease models have a much increased ability to predict efficacy in vivo and ultimately in the clinic.
Preparation of Brain Slice Explants. Cd Sprague-Dawley Rat Pups are Used at Postnatal day 10. Brains are cut into 250 μm coronal slices on a vibratome in chilled medium baths. Approximately 6 such slices can be cut from each rat brain; each are divided into “hemi-coronal” slices which are placed in individual 6-well transwell inserts. […]
Assessment of cortical neuron health. […] Representative images are captured using a digital camera on a fluorescence microscope. After 3 days, cortical neurons are scored. […] Statistical significance of the neuronal counts in compound-treated slices is evaluated by ANOVA analysis, followed by post hoc Dunnett's analysis at the p≦0.05 confidence level. […]

[6] = Anti-oxidant activity
[7] = tested on: MGAT3; assay: MGAT3 transcription ratio, AD patient / control PBMCs (qPCR); format: cell-based, human; settings: Aβ stimulation
Method: (§1) qPCR reactions of cultured monocyte cDNAs. One μL total cellular cDNA per reaction is used in triplicate reactions for each test gene, and for each culture treatment. SYBR-Green reactions were run on a Continuous Fluorescence real-time thermocycler and analyzed. Cycle threshold (Ct) values are recorded for each replicate reaction, and are then averaged and normalized against mean Ct values from one or more control genes. Fold-expression differences relative to untreated cells are determined using the 2^−ΔΔCt method as previously described. Data from the curcumin concentration range are plotted in order to determine EC50 values (concentrations producing one-half maximal stimulant activity), which are used for comparisons of potency between different compounds. Data are also evaluated for each gene with regard to sensitivity, maximally effective concentration of curcuminoid, response to Aβ, and overall magnitude of fold-expression changes.
(§2) MGAT3 and/or TLR transcription were tested by qPCR in human monocyte cells treated with curcuminoids and compared the results to those treated with vehicle (Table 7). As discussed above, activation or up-regulation of macrophage MGAT3 or TLR's results in many functional outcomes, including the enhancement of […] and removal of Aβ, increased apoptosis, secretion of inflammatory cytokines, and other anti-AD antimicrobial activities. […] Thus, the ratio of MGAT3 or TLR transcription upon Aβ stimulation of human monocytes versus vehicle treatment provides an indicator and sensitive method to test the in vitro efficacy of drug candidates. […] The relative biological activity of the curcumin analogs in AD patient and control cells was ascertained in the in vitro Aβ assay described above (see Example 2).

[8] = Average permeability; format: in vitro ADME; settings: not told
[9] = tested on: ALS PBMCs; assay: Mutant SOD-1 induced polarization of ALS PBMCs to the Th17 type; format: cell-based, human
Text: (§3) More recently, it was shown that PBMCs isolated from ALS patients, and to a lesser extent from control subjects, strongly express COX-2 and other cytokines after stimulation with aggregated wild-type or mutant SOD-1. […] It was also shown that mutant SOD-1 induced polarization of ALS PBMCs to the Th17 type, but the induction was inhibited by 10.

[10] = tested on: MGAT3; assay: MGAT3 gene expression by qPCR in U-937 human monocytic cells treated with curcumins plus Aβ; format: cell-based; settings: human monocytic cells (U-937), curcumin plus Aβ
Method: (§4) Cell culture conditions for monocytic cell lines. Human and mouse monocyte cell lines are grown in RPMI-1640 medium with 10% fetal bovine serum (FBS), plus glutamine and pen/strep. For treatment with compounds (curcuminoids+/−Aβ), replicate sets of 0.5-1.0 mL cultures containing 1-2×10^6 cells are set up in the wells of 48-well tissue culture plates. Both replicate sets have at least one control well receiving no added curcuminoid to provide baseline expression controls for untreated, and Aβ-only treated cells. Remaining wells receive curcuminoid in a range of 10-fold serial dilutions in DMSO, typically from […] Cultures are incubated for 20-24 hours (“overnight”) at 37° C. in atmosphere with 5% CO2. After one overnight, to one of replicate sets of cultures is added Aβ (1-42) peptide to a final concentration of 5 μg/mL.
(§5) RNA isolation and cDNA synthesis. After the first overnight incubation in the presence of curcuminoid, cells from one replicate set of wells are collected by centifugation. RNAs are extracted from pelleted cells using miniprep column kits following manufacturer's protocol for animal cells. […] of total cellular RNA from each well is quantitated using a Nanodrop spectrophotometer, and first-strand total cDNA is prepared from 0.3-1.0 μg RNA by random-hexamer priming. Following the second 20 hr. incubation in the presence of Aβ, RNA extractions and cDNA synthesis are similarly performed.
Assay development. Gene-specific mRNA levels are determined using a real-time thermocycler, and by normalizing to expression of one or more control genes. Assays for quantifying mRNA levels are based on gene sequences reported in NCBI Genbank. PCR oligonucleotide primers are selected spanning introns to minimize the opportunity for amplication from any contaminating genomic DNA in the RNA preps. Oligonucleotides are typically tested and used at a concentration of 200 nM in qPCR reactions containing SYBR dye. Control reactions include template from cDNA synthesis reactions either + or − reverse transcriptase (RT), as well as no-template controls (ntc). […] Melt curves based on incremental 0.5° C. increases are determined for new assays to test for uniformity of amplified products. […]
qPCR reactions of cultured monocyte cDNAs. […] SYBR-Green reactions were run on a Continuous Fluorescence real-time thermocycler and analyzed. Cycle threshold (Ct) values are recorded for each replicate reaction, and are then averaged and normalized against mean Ct values from one or more control genes. Fold-expression differences relative to untreated cells are determined using the 2^−ΔΔCt method as previously described. […] Data are also evaluated for each gene with regard to sensitivity, maximally effective concentration of curcuminoid, response to Aβ, and overall magnitude of fold-expression changes. […]

[11] = tested on: COX-2; assay: Inhibition of SOD1-induced COX-2 expression in ALS PBMCs; format: cell-based, human; settings: aggregated wild-type or mutant SOD-1
Text: as §3

[12] = tested on: TLR2; assay: TLR2 gene expression by qPCR in U-937 human monocytic cells treated with curcumins plus Aβ; format: cell-based; settings: for Relative gene expression TLR2, increased expression relative to control cells: human monocytic cells (U-937), curcumin plus Aβ
Method: as §4, §5
(§6) Assay development. Gene-specific mRNA levels are determined using a real-time thermocycler, and by normalizing to expression of one or more control genes. Assays for quantifying mRNA levels are based on gene sequences reported in NCBI Genbank. PCR oligonucleotide primers are selected spanning introns to minimize the opportunity for amplication from any contaminating genomic DNA in the RNA preps. Oligonucleotides are typically tested and used at a concentration of 200 nM in qPCR reactions containing SYBR dye. Control reactions include template from cDNA synthesis reactions either + or − reverse transcriptase (RT), as well as no-template controls (ntc). All reactions are performed in triplicate. Reactions are typically run with 40 cycles of 95° C. (10 sec) and 58° C. (30 sec). Melt curves based on incremental 0.5° C. increases are determined for new assays to test for uniformity of amplified products. Reaction conditions are modified as needed depending on initial test results. ‘Working’ assays are selected based on clear RNA-dependent amplification and absence of product in ‘ntc’ reactions. The following assay primers are used: […]
(§7) qPCR reactions of cultured monocyte cDNAs. One μL total cellular cDNA per reaction is used in triplicate reactions for each test gene, and for each culture treatment. SYBR-Green reactions were run on a Continuous Fluorescence real-time thermocycler and analyzed. Cycle threshold (Ct) values are recorded for each replicate reaction, and are then averaged and normalized against mean Ct values from one or more control genes. Fold-expression differences relative to untreated cells are determined using the 2^−ΔΔCt method as previously described. […] Data are also evaluated for each gene with regard to sensitivity, maximally effective concentration of curcuminoid, response to Aβ, and overall magnitude of fold-expression changes. […]

[13] = tested on: VDR; assay: VDR gene expression by qPCR in U-937 human monocytic cells treated with curcumins plus Aβ; format: cell-based; settings: for Relative gene expression VDR, increased expression relative to control cells: human monocytic cells (U-937), curcumin plus Aβ
Method: as §4, §5, §6, §1
(§8) Data showing in vitro up-regulation of genes associated with Aβ phagocytosis in response to curcumins. Natural curcumins and synthetic analogs were tested in U-937 human monocyte cells in vitro for their ability to modulate expression of the genes MGAT3 and TLRs −2, −3, and −4. […]

[14] = tested on: TLR4; assay: TLR4 gene expression by qPCR in U-937 human monocytic cells treated with curcumins plus Aβ; format: cell-based; settings: for Relative gene expression TLR4, increased expression relative to control cells: human monocytic cells (U-937), curcumin plus Aβ
Method: as §4, §5, §6, §7

[15] = tested on: TLR3; assay: TLR3 gene expression by qPCR in U-937 human monocytic cells treated with curcumins plus Aβ; format: cell-based; settings: for TLR3 expression response (in words): U-937, plus Aβ (FIG. 3); for Relative gene expression TLR3, increased expression relative to control cells: human monocytic cells (U-937), curcumin plus Aβ
Method: as §4, §5, §6, §1, §8

[16] = tested on: TLR 2; assay: TLR 2 transcription ratio, AD patient / control PBMCs (qPCR); format: cell-based, human; settings: Aβ stimulation
Method: as §1, §2

[17] = tested on: TLR 4; assay: TLR 4 transcription ratio, AD patient / control PBMCs (qPCR); format: cell-based, human; settings: Aβ stimulation
Method: as §1, §2

[18] = tested on: TLR 3; assay: TLR 3 transcription ratio, AD patient / control PBMCs (qPCR); format: cell-based, human; settings: Aβ stimulation
Method: as §1, §2

Row | SMILES | solubility [1] | half-life [3] | half-life [4] | IC50 [6] | Relative ratio of MGAT3 transcription in AD patient / control PBMC's [7] | Papp [8] | Relative gene expression MGAT3, increased expression relative to control cells [10] | Relative gene expression TLR2, increased expression relative to control cells [12] | Relative gene expression VDR, increased expression relative to control cells [13] | Relative gene expression TLR4, increased expression relative to control cells [14] | TLR3 expression response (in words) [15] | Relative gene expression TLR3, increased expression relative to control cells [15] | further results
1 | COc1cc(/C=C/C(=O)/C=C(O)/C=C/c2ccc(O)c(OC)c2)ccc1O [Compound 2, 1,7-Bis(4-hydroxy-3-methoxyphenyl)-5-hydroxy-hepta-1,4,6-trien-3-one, reference compound] | 9.5 µg/mL (≈ 25.8 µM) | 40.8 min | 10.1 min | 31.7 µM | + ((+) indicates a ratio of 1.0-1.5) | 844 ± 24 ×10⁻⁶ cm/s |  |  |  |  |  |  | half-life ([2]; water (aqueous solution), pH 7.4, read-out: Chemical stability t1/2 pH 7.4 (converted)): 15.9 min; half-life ([2]; water, H2O, read-out: Chemical stability t1/2 H2O (converted)): 73.5 min; Neuroprotective effect against hAPP-induced neurodegeneration [5]: prevent widespread neurodegeneration in a dose-dependent manner
2 | CN(C)c1ccc(/C=C/C(O)=C2\CCC/C(=C\c3ccc(N(C)C)cc3)C2=O)cc1 [Compound 10] |  | 127 min | 311 min | 155 µM |  |  | +++ ((+++) >40-fold) | ++ ((++) >20-fold) | +++++ ((+++++) >1000-fold) | + ((+) <20-fold) | considerably higher expression | +++ ((+++) >40-fold) | Chemical stability H2O (stable/unstable) ([2]; H2O): stable (stability half-lives greater than 5 hours); Stability compared with BDC (in words) ([2]; chemical and metabolic stability): markedly greater stability than BDC; Chemical stability pH 7.4 (stable/unstable) ([2]; pH 7.4): stable (stability half-lives greater than 5 hours); Induction of Th17 polarization by mutant SOD-1 [9]: inhibited; Induction of COX-2 by SOD-1 after pretreatment [11]: blocked; Concentration giving maximal TLR2 expression ([12]; U-937, in the presence of Aβ (FIG. 2)): 1 nM; VDR expression increase ([13]; human monocytes, plus Aβ (FIG. 5)): 10^3 fold; Concentration giving maximal TLR4 response ([14]; U-937, plus Aβ (FIG. 4)): approximately 10 nM
3 | CC(C)C(N)C(=O)Oc1ccc(/C=C/C(=O)/C=C(O)/C=C/c2ccc(OC(=O)C(N)C(C)C)cc2)cc1 (stereo not drawn) [Compound 33, 4,4′-(3,5-Dioxohepta-1,6-diene-1,7-diyl)bis(4,1-phenylene) bis(2-amino-3-methylbutanoate)] | 18.2 µg/mL (≈ 35.9 µM) | 23.8 min | 5.9 min | > 250 µM | + ((+) indicates a ratio of 1.0-1.5) | 316 ×10⁻⁶ cm/s | +++ ((+++) >40-fold) | + ((+) <20-fold) | ++ ((++) >20-fold) | + ((+) <20-fold) | limited response | + ((+) <20-fold) | Solubility compared with parent compounds (in words) [1]: significantly improved solubility; Relative ratio of TLR 2 transcription in AD patient / control PBMC's [16]: TLR 2 ++ ((++) indicates a ratio of 1.5-2.0); Relative ratio of TLR 4 transcription in AD patient / control PBMC's [17]: TLR 4 + ((+) indicates a ratio of 1.0-1.5); half-life ([2]; water (aqueous solution), pH 7.4, value given in h, read-out: Chemical stability t1/2 pH 7.4 (converted)): 60 min; half-life ([2]; water, H2O, value given in h, read-out: Chemical stability t1/2 H2O (converted)): 1130 min; Relative ratio of TLR 3 transcription in AD patient / control PBMC's [18]: TLR 3 ++ ((++) indicates a ratio of 1.5-2.0); VDR normalized expression response (in words) ([13]; human monocytes, plus Aβ): somewhat higher expression
